Read-outs that look alike come from different tables or passages of the source.
Experiments:
[1] = test system: P4-CCR5 cells; experiment: In vitro cytotoxicity, MTT assay; assay type: cell-based; settings: concentrations as high as 0.1 mg/ml, 2 hours
Experimental: P4-CCR5 cells were seeded at a density of 4×10^4 cells/well in a 96 well plate approximately 18 hours prior to experiment. […] The cells were subsequently washed and assessed for viability using a 3-(4,5-dimethylthiazol-2-yl)-2,5-diphenyltetrazolium bromide (MTT) assay of viability (previously described in Krebs et al. (1999). Concentrations were tested in triplicate in two independent assays.

[2] = target: T1, HIV-1 YU2 gp120 (Human immunodeficiency virus type 1 group M subtype B, UniProt P35961); experiment: SPR direct binding to immobilized YU2 gp120
T1 construct: made in house; host or cells: Drosophila S2 cells
Experimental: All surface plasmon resonance experiments (SPR) were performed on a BIA3000 optical biosensor (Biocore, Inc., Uppsala, Sweden). […] For direct binding experiments, YU2 gp120 was immobilized on the surface (˜4000RU); peptide analytes in PBS buffer were passed over the surface at a flow rate of 50 μL/min. with 5 minute association phase and 5 minute dissociation phase. […] The indicated analytes were passed over the surfaces at a flow rate of 50 μL/minute, with 2.5 minute association phase and 2.5 minute dissociation phase.
Data analysis was performed using BIAEvaluation® 4.0 software (Biacore Inc., NJ). The responses of a buffer injection and responses from the control surface to which the mAb 2B6R was immobilized, were subtracted to account for nonspecific binding. Experimental data were fitted to a simple 1:1 Langmuir binding model with a parameter included for mass transport. The average kinetic parameters (association [ka] and dissociation [kd] rates) generated from a minimum of four datasets were used to define equilibrium association (KA) and dissociation constants (KD).

[3] = target: T2, YU2 gp120 binding to 17b (Human immunodeficiency virus type 1 group M subtype B, UniProt P35961); experiment: SPR competition: inhibition of YU2 gp120 binding to immobilized 17b; parameters: species or system HIV-1; settings: 100 nM YU2 gp120, peptide 10 to 600 nM
T2 construct: made in house; host or cells: gp120: Drosophila S2 cells
Text: (§1) In one experiment, antibodies b6, b12, or F105 were immobilized on a biosensor CM5 chip.

[4] = target: T3, YU2 gp120 binding to sCD4 (Human immunodeficiency virus type 1 group M subtype B, UniProt P35961); experiment: SPR competition: inhibition of YU2 gp120 binding to immobilized sCD4; parameters: species or system HIV-1; settings: 100 nM YU2 gp120, peptide 10 to 600 nM
T3 construct: made in house; host or cells: gp120: Drosophila S2 cells; sCD4: CHO cells
Text: as §1

[5] = test system: HIV-1 strain BaL; experiment: Inhibition of HIV-1 BaL infection of P4-CCR5 cells (whole virus assay); assay type: cell-based
Text: Infectivity remaining is expressed relative to mock-treated, HIV-1-infected cells.

[6] = target: T4, sCD4 (Homo sapiens, UniProt P01730); experiment: SPR direct binding of peptide to immobilized sCD4
T4 construct: made in house; host or cells: CHO cells

[7] = test system: HIV-1 strain BaL; experiment: Combination of HNG-156 and cyanovirin-N against HIV-1 BaL infection of P4-CCR5 cells; assay type: cell-based; settings: for IC50, viral infectivity inhibition: HIV-1 BaL, P4-CCR5 cells, combination at constant ratio 1:8.2 by weight, plotted against first-named component
Experimental: Dextran sulfate (DS) was used as a comparative. […] Combination Indexes (CIs) were calculated using the CalcuSyn software. […] CI values were calculated for 50, 75, and 90% HIV inhibition.

[8] = target: T5, gp120 binding to sCD4 (Human immunodeficiency virus type 1 group M subtype B, UniProt P35961); parameters: species or system HIV-1; settings: in the presence of HNG-156
T5 construct: made in house; host or cells: sCD4: CHO cells; gp120 (if YU2): Drosophila S2 cells

[9] = target: T6, gp120 binding to 2G12 (Human immunodeficiency virus type 1 group M subtype B, UniProt P35961); experiment: Effect on gp120 binding to antibody 2G12; parameters: species or system HIV-1
T6 construct: with a constant concentration (100 nM) of YU2 gp120

[10] = target: HIV-1 92UG037-08 gp120; experiment: SPR direct binding to immobilized 92UG037-08 gp120; settings: HIV-1 env 92UG037-08 (A)
[11] = test system: 17b; experiment: SPR direct binding of peptide to immobilized 17b
[12] = test system: HIV-1 strain BaL; settings: P4-CCR5 cells (Gopi et al., 2008); read-out: IC50, inhibition of infection by HIV-1 BaL; cited from earlier work
[13] = test system: P4-CCR5 cells; settings: at concentrations corresponding to IC50 values; cited from earlier work

**Q.** Which “effect on P4-CCR5 cell viability” value [1] does the source give for `CC[C@H](C)[C@H](NC(=O)[C@@H](N)CCCNC(=N)N)C(=O)N[C@@H](CC(N)=O)C(=O)N[C@@H](CC(N)=O)C(=O)N[C@H](C(=O)N1C[C@@H](n2cc([C]34[CH]5[CH]6[CH]7[CH]3[Fe]6754389%10[CH]4[CH]3[CH]8[CH]9[CH]4%10)nn2)C[C@H]1C(=O)N[C@@H](Cc1c[nH]c2ccccc12)C(=O)N[C@@H](CO)C(=O)N[C@@H](CCC(=O)O)C(=O)N[C@@H](C)C(=O)N[C@@H](CCSC)C(=O)N[C@@H](CCSC)C(N)=O)[C@@H](C)CC` (some centres unmarked) [HNG-156] here?
**A.** no effect

**Q.** What about the kd ([2]; HIV-1 env YU2, Table 1) of the same molecule?
**A.** 0.000955 s⁻¹

**Q.** And the “affinity higher than HNG-105's affinity” value ([2]; YU2 gp120)?
**A.** roughly 3 fold

**Q.** What about the “inhibition of binding of gp120 to 17b surface” value [3] of the same molecule?
**A.** complete inhibition

**Q.** What about the “inhibition of binding of gp120 to sCD4 surface” value [4] of the same molecule?
**A.** complete inhibition

**Q.** And the “more effective than HNG-105 in inhibiting infection” value ([5]; HIV-1 BaL)?
**A.** approximately 15 fold

**Q.** And the “direct binding to sCD4” value [6]?
**A.** no direct binding

**Q.** And the “IC50, viral infectivity inhibition” value [7]?
**A.** 0.213 microgram/milliter

**Q.** And the “reduction of the affinity of CD4” value [8]?
**A.** reduced by two orders of magnitude

**Q.** What about the “effect on the binding of 2G12” value [9] of the same molecule?
**A.** did not show any effect

**Q.** And the Kd [10]?
**A.** 16.3 nM

**Q.** What about the ka [10] of the same molecule?
**A.** 106000 M⁻¹ s⁻¹

**Q.** And the “direct binding to 17b” value [11]?
**A.** no direct binding

**Q.** For RINNIPWSEAMM [HNG-124], which IC50 [12] is on record?
**A.** 418 nM

**Q.** And the “impact on cell viability” value [13]?
**A.** no or minimal impact

**Q.** Which IC50 [12] does the source give for `CC[C@H](C)[C@H](NC(=O)[C@@H](N)CCCNC(=N)N)C(=O)N[C@@H](CC(N)=O)C(=O)N[C@@H](CC(N)=O)C(=O)N[C@H](C(=O)N1CCC[C@H]1C(=O)N[C@@H](Cc1c[nH]c2ccccc12)C(=O)N[C@@H](CO)C(=O)N[C@@H](CCC(=O)O)C(=O)N[C@@H](C)C(=O)N[C@@H](CCSC)C(=O)N[C@@H](CCSC)C(=O)O)[C@@H](C)CC` [12p1, reference compound] here?
**A.** 48000 nM

**Q.** With RINNIPWSEAMM [HNG-113] as the molecule, how does the IC50 [12] read?
**A.** 156 nM

**Q.** And the “impact on cell viability” value [13]?
**A.** no or minimal impact

**Q.** For RINNIPWSEAMM [HNG-137], which IC50 [12] is on record?
**A.** 610 nM

**Q.** And the “impact on cell viability” value [13]?
**A.** no or minimal impact

**Q.** Which IC50 ([5]; result of one trial) does the source give for dextran sulfate [DS] here?
**A.** 9800 nM

**Q.** And the “IC50, inhibition of infection by HIV-1 BaL” value ([5]; result of one trial)?
**A.** 4.9 µg/mL

**Q.** And the “IC50, viral infectivity inhibition” value [7]?
**A.** 0.900 microgram/milliter

B1: Cyanovirin-N: 11 kD protein originally isolated from the cyanobacteria Nostoc ellipsosporum, binds gp120 (protein, listed as Nostoc ellipsosporum)
chain: LGKFSQTCYNSAIQGSVLTSTCERTNGGYNTSSIDLNSVIENVDGSLKWQPSNFIETCRNTQLAGSSELAAECKTRAQQFVSTKINLDDHIANIDGTLKYE
modifications: DISULFID (8)..(22) disulfide bond
**Q.** For B1, which “improvement in the efficacy of CV-N in viral inhibition upon addition of HNG-156” value [7] is on record?
**A.** ~10 fold

**Q.** What about the “IC50, viral infectivity inhibition” value [7] of the same molecule?
**A.** 0.026 microgram/milliter

**Q.** And the “EC50 Dm” value ([7]; dose at which 50% neutralization occurs)?
**A.** 0.045 µg/mL

Reference: patent US20150011483A1, “Inhibition of HIV-1 Infection by Potent Metallocene Conjugated Peptide Through Conformational Entrapment of Envelope GP120” (priority 2007, published 2015)
